Results published in US20210361577A1, “LIPOPHILIC TRANSPORT PARTICLES FOR COSMETIC OR PHARMACEUTICAL ACTIVE INGREDIENTS” (IOI OLEO GMBH, priority 2018, published 2021).
Like-named read-outs stand apart in the source and are kept apart here.

Tests used:
[1] = contact angle with purified water (hydrophobicity) and its storage stability; assay type: physicochemical; conditions: after 16 weeks at room temperature (20° C.) and at 40° C.
Method: An advantageous property of the PGFEs for lipophilic carrier particles in accordance with claim 1 which should be considered is the hydrophobicity, which can be determined by determining the contact angle. The determination of the hydrophobicity is carried out by determining the contact angle between the PGFE in the solid physical state and a droplet of purified water. According to Young's equation, cos θ=(γSV−γSL)/γLV, wherein γSL is the interfacial tension between the PGFE and water, γLV is the interfacial tension of the water droplet and γSV is the surface tension between the PGFE and the surrounding air. θ is the contact angle. Thus, the larger the contact angle θ, the higher is the surface tension between the PGFE and the water and the higher is the hydrophobicity of the PGFE under investigation. The contact angles for the proposed polyglycerol fatty acid esters also correlate with the HLB value which is often used in pharmaceutical technology, which is on a scale of 0 to 20 and provides information regarding the ratio of lipophilic to hydrophilic molecular fractions, wherein the hydrophilic fraction increases with increasing HLB value. […]

[2] = cited from earlier work
[3] = active ingredient loading of carrier particles made by spray drying; assay type: physicochemical; conditions: spray drying process
Excerpt: The carrier particles which are provided fulfil their purpose when they are loaded with an active ingredient, in particular a pharmaceutical active ingredient. This may, for example, be carried out by means of a spray drying process in accordance with claim 22, in which the active ingredient and the PGFE or PGFEs are initially dissolved and/or suspended in a suitable organic solvent and then are separated from the solvent once more by spray drying. Examples of suitable solvents are the ether tetrahydrofuran, the alcohol ethanol, the ketone acetone, the ester ethyl acetate or the alkane heptane. It has been shown that by means of spray drying, loading with a pharmaceutical active ingredient of up to 30% by weight is possible.
Lipophilic carrier particles in accordance with claim 1 can advantageously be loaded with pharmaceutical active ingredients from the group formed by non-steroidal antirheumatic agents.

SMILES | contact angle deviation from starting value on storage [1] [°] | increase in the crystal thickness ([2]; a- to b-modification transformation) | average lamellar structures per subcellular unit ([2]; a-modification) | average lamellar structures per subcellular unit ([2]; after complete transformation into the b-modification) | loading of the carrier particles with active ingredient [3]
CCCCCCCCCCCCCCCCCC(=O)OCC(COC(=O)CCCCCCCCCCCCCCCCC)OC(=O)CCCCCCCCCCCCCCCCC [glycerol tristearate] | 40 | approximately 67% | 6 | 10.5 | 
CC(C)Cc1ccc(C(C)C(=O)O)cc1 (centres unmarked) [ibuprofen] |  |  |  |  | up to 30 % by weight
